These results are taken from ChEMBL document CHEMBL1131494, “Novel 17-azolyl steroids, potent inhibitors of human cytochrome 17 alpha-hydroxylase-C17,20-lyase (P450(17) alpha): potential agents for the treatment of prostate cancer” (J Med Chem, 1998).

Data set [1] addresses T1, Steroid 17-alpha-hydroxylase/17,20 lyase (Homo sapiens, UniProt P05093).
T1 sequence (P05093 whole entry): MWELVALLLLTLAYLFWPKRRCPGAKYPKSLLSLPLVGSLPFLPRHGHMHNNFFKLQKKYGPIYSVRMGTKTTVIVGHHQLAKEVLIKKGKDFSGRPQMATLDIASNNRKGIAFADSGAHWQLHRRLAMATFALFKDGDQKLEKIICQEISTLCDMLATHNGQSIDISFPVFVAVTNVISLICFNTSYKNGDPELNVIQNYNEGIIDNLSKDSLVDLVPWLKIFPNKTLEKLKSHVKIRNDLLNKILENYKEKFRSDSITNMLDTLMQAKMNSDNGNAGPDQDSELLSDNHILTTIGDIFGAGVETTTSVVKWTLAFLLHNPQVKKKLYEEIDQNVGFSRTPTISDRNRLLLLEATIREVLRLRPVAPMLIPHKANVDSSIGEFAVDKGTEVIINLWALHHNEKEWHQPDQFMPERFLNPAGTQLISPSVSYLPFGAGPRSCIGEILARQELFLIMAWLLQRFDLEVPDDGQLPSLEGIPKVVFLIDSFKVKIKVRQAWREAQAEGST
Description: Inhibition of human testicular microsomal Cytochrome P450 17A1.

Data set [2] addresses T1, Steroid 17-alpha-hydroxylase/17,20 lyase.
Description: Binding affinity for Cytochrome P450 17A1 (17-alpha-hydroxypregnenolone Km=560 nM)
Data set [3] is described as follows: Inhibition of human steroid 5-alpha-reductase.
Data set [4] deals with T2, Steroid 17-alpha-hydroxylase/17,20 lyase (Rattus norvegicus, UniProt P11715).
T2 sequence (P11715 whole entry): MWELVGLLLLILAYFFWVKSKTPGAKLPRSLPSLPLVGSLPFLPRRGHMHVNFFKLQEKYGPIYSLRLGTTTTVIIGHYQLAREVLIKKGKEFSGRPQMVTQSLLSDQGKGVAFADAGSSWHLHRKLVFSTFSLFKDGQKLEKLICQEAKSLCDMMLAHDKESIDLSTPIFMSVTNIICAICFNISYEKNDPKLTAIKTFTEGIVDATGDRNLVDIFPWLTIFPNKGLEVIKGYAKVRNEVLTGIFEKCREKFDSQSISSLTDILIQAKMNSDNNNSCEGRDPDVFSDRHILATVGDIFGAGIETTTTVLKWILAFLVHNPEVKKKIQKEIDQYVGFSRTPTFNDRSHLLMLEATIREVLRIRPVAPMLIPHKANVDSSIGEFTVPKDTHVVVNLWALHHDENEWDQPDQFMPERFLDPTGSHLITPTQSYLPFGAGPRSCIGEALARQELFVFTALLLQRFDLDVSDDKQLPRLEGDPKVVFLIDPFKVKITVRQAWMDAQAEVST
In words: Inhibition of rat Cytochrome P450 17A1.

Data set [5] has as its target T1, Steroid 17-alpha-hydroxylase/17,20 lyase. In words: Inhibition of human testicular microsomal cytochrome P450 17A1 at 150 nM; no inhibition.
Data set [6] shares this target. In words: Inhibition of human testicular microsomal cytochrome P450 17A1 at 150 nM; NI = No inhibition. Conditions: 0.15 µM; call rule not given here.
The target is the same in data set [7]. This is another data set of the same source.
Data set [8] deals with T2, Steroid 17-alpha-hydroxylase/17,20 lyase. In words: Inhibition of rat cytochrome P450 17A1.
Data set [9] has as its target T1, Steroid 17-alpha-hydroxylase/17,20 lyase. Description: Inhibition of human testicular microsomal cytochrome P450 17A1 at 150 nM; NI = No inhibition. Conditions: 0.15 µM.

Molecules are shown by their SMILES.

As to `C[C@]12CCC(=O)C=C1CCC1C2CC[C@]2(C)C(n3cncn3)=CCC12` (stereo partly drawn), the IC50 in data set [1] was 55 nM; in [3] it was 152 nM; in [4] it was 11 nM. The Ki in data set [2] amounted to 41 nM.
The corresponding values for `C[C@]12CC[C@H](O)CC1=CCC1C2CC[C@]2(C)C(n3ccnc3)=CCC12` (stereo partly drawn) are 8 nM, 400000 nM, 9 nM and 1.2 nM.
Turning to `C[C@]12CC[C@H](O)CC1=CCC1C2CC[C@]2(C)C(n3nccn3)=CCC12` (stereo partly drawn), the IC50 entry in data set [5] was “Not Active”.
As to `C[C@]12CCC(=O)C=C1CCC1C2CC[C@]2(C)C(n3ccnc3)=CCC12` (stereo partly drawn), the IC50 in [1] was 7 nM; in data set [3], 142 nM; in data set [4] it was 8 nM. This compound also returned a Ki in data set [2] of 1.9 nM.
For `C[C@]12CC[C@H](O)CC1=CCC1C2CC[C@]2(C)C(n3ncnn3)=CCC12` (stereo partly drawn), in [6], the Inhibition entry is recorded as “Not Active”.
In turn, `CC(C)(C)NC(=O)[C@H]1CC[C@H]2[C@@H]3CC[C@H]4NC(=O)C=C[C@]4(C)[C@H]3CC[C@]12C` [FINASTERIDE] gave an IC50 in data set [3] of 33 nM.
On to `C[C@]12CCC(=O)C=C1CCC1C2CC[C@]2(C)C(n3ccnn3)=CCC12` (stereo partly drawn), for which the values for the IC50 in data set [1], in [3] and in data set [8] were 19 nM, 198 nM and 9 nM, respectively. Also, affinity in [7] was put at a Ki of 8 nM.
For the compound `C[C@]12CC[C@H](O)CC1=CCC1C2CC[C@]2(C)C(n3cnnn3)=CCC12` (stereo partly drawn), the Inhibition result in data set [9] was “Not Active”.
As for `C[C@]12CC[C@H](O)CC1=CC[C@@H]1[C@@H]2CC[C@]2(C)C(n3cncn3)=CC[C@@H]12`, the IC50 turned out to be 90 nM in data set [1], 160000 nM in [3] and 26 nM in data set [8]. The same compound had a Ki in [2] of 23 nM.
In the case of `C[C@]12CC[C@H](O)CC1=CCC1C2CC[C@]2(C)C(n3ccnn3)=CCC12` (stereo partly drawn), the IC50 in [1] was determined as 13 nM; in data set [3], 10000 nM; in [4], 10 nM. The compound also came in with a Ki in [2] of 1.4 nM.

For orientation: IC50 means the concentration needed to halve the response being measured. A low value points to higher potency. Usually Ki stands for a dissociation constant, usually derived from enzyme kinetics or from competition with a known ligand. Low readings indicate tighter binding, high ones weaker binding.
